Patent US12054562B2, “Cell-permeable inhibitory agent and methods of use thereof in treatment of cognitive and mood disorders” (priority 2015, dated 2024)

Assays:
[1] = molecular target: T1, gephyrin and α5 subunit interaction (Mus musculus, UniProt Q8BUV3); test: Co-IP and WB of gephyrin and α5 subunit interaction; format: binding; settings: immunoprecipitates from Example 1, hippocampal tissue
T1 construct: from tissue; host or cells: hippocampus of adult mice
T1 sequence (Q8BUV3 1-769): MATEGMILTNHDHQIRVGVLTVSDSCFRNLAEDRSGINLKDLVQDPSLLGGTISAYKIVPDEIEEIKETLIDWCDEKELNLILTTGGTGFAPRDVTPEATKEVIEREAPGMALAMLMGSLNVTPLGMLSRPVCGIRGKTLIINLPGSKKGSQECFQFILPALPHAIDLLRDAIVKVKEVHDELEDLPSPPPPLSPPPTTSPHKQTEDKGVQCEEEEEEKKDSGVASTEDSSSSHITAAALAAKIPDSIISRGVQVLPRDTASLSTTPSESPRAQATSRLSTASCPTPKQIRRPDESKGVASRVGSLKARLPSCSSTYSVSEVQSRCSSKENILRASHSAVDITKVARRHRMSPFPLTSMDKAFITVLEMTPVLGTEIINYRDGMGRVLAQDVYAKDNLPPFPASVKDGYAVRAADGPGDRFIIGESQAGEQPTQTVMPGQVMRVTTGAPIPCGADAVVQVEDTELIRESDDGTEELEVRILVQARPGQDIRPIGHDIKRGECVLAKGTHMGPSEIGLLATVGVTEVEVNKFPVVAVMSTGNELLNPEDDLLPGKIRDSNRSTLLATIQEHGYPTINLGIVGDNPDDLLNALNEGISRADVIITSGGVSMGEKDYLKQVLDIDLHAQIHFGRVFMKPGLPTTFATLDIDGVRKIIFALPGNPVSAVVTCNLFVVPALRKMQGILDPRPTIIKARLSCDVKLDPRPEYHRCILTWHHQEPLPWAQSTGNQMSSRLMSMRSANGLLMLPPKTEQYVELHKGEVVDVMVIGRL
Description: For the immunoprecipitation experiment, the tissue lysate containing […] protein (in 250 μl) was incubated with 20 μM (20 μl) of either the inhibitory peptide (SEQ ID NO:1) or scramble peptide (SEQ ID NO:5) without TAT sequence. One hour following the incubation, the antibodies (2-4 μg) against either α5 subunit (cat #sc—31417, Santa Cruz Biotechnology, Inc., 10410 Finnell St. Dallas, TX, 75220, USA) or radixin (cat #ab91312, Abcam Inc., c/o 913860, PO Box 4090 Stn A, Toronto, ON M5W 0E9), or 4 μg of non-specific IgG protein (cat #sc—2028, Santa Cruz Biotechnology, Inc., 10410 Finnell St. Dallas, TX, 75220, USA), were added to the lysate solution. After gently shaking overnight at 4° C., the immune complexes were precipitated with protein A/G plus-agarose beads (Santa Cruz Biotechnology, Inc., 10410 Finnell St. Dallas, TX, 75220, USA). Forty microliters of the A/G plus agarose beads were added to the immune complex solution and shaking gently for 2 h at 4° C. After spin with the microcentrifuge (Eppendorf Mini-Spin Plus, Marshall Scientific, 424 Route 125, Brentwood, NH 03833, USA), the immunoprecipitates were washed four times with ice-cold PBS, then resuspended in 2× Laemmli sample loading buffer containing 5% […], and boiled for 5 min. These samples were subjected to Western blot experiment. […]

[2] = system: etomidate-induced memory deficits in mice; test: Novel object recognition task, treatment paradigm; format: in vivo, mouse; settings: peptide given the day after etomidate, 4 hrs before behavioral testing
Description: In the present study, mice were handled two times a day, 5 min each before start of behavioral experiments. Object recognition was assessed in a circle opaque chamber with the diameter of 38.5 cm in a regular lit room. Each mouse was habituated to the chamber for 5 min since day 3. During the training phase, the mouse was allowed to explore two identical objects for 5 min. The mouse was then returned to its home cage for a retention period of 1 h. The mouse was reintroduced to the training context and presented with one familiar object and one novel object for 5 min. Movement and interaction with the objects was recorded with a video camera that was mounted above the chamber. The exploratory behavior and mouse activity was analyzed blindly by a person with a good training and the software EthoVision, XT v11.5 provided by the Noldus Information Tech Inc., (Leesburg VA, USA). Exploratory behavior was defined as sniffing, licking, or touching the object while facing the object. Memory was assessed by measuring the novelty preference ratio (i.e., the ratio of time spent exploring the novel object to the time spent exploring both objects). […] Total interaction time with both objects was compared between groups to determine whether the treatments affected locomotor activity or exploration during the testing phase. […]

[3] = molecular target: T2, α1 subunit containing GABAA receptors (Mus musculus, UniProt P62812); test: Co-IP and WB, gephyrin and α1 subunit containing GABAA receptors; format: binding; settings: immunoprecipitates from Example 1, hippocampal tissue
T2 construct: α1 and α2 subunit containing GABAA receptors in the hippocampal tissue; from tissue; host or cells: hippocampus of adult mice
T2 sequence (P62812 28-455): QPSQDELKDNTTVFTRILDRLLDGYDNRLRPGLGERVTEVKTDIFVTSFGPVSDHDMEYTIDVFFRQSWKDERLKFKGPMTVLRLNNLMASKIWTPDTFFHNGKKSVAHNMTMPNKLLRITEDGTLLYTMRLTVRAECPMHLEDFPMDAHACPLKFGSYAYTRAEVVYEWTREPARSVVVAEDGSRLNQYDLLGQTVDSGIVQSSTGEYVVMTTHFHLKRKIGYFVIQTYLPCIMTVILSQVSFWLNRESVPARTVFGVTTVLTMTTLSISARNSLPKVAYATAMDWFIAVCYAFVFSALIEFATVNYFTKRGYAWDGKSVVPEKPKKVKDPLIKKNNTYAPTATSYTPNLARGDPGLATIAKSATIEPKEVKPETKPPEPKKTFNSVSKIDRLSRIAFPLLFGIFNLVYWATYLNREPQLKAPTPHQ

With NYFTKRGWAWDGKKAL [inhibitory peptide] as the sequence, how does the “gephyrin and α5 subunit interaction” value [1] read?
Its value is “did not interfere”.

And the “memory deficits in etomidate-treated mice (NOR, treatment)” value [2]?
The value was “reversed”.

And the “effects on α1 subunit containing GABAA receptors (gephyrin interaction)” value [3]?
Its value is “did not have any effects”.
